Data on 15 molecules can be found in ChEMBL document CHEMBL3588815, “Distinct Temporal Fingerprint for Cyclic Adenosine Monophosphate (cAMP) Signaling of Indole-2-carboxamides as Allosteric Modulators of the Cannabinoid Receptors” (J Med Chem, 2015).

Data set [1] concerns the target T1, Cannabinoid receptor 1 (Homo sapiens, UniProt P21554). The data set is described as follows: Slow antagonist/Inverse agonist activity at hemagglutinin-tagged human CB1 receptor expressed in HEK293 cells assessed as reversal of 1 uM CP55,940-induced inhibition of 5 uM forskolin-induced cAMP accumulation by kinetic cAMP assay. Format: functional, cell-based. A general note: Cyclic AMP is a second messenger, typically raised through Gs and lowered through Gi signalling.

Data set [2] concerns the target T1, Cannabinoid receptor 1. The experiment in a line: Allosteric modulator activity at hemagglutinin-tagged human CB1 receptor expressed in HEK293 cells assessed as effect on CP55,940-induced inhibition of forskolin-induced cAMP accumulation by kinetic cAMP assay. Type of data set: functional, cell-based.
Data set [3] has as its target T1, Cannabinoid receptor 1. The experiment in a line: Allosteric agonist activity at hemagglutinin-tagged human CB1 receptor expressed in HEK293 cells assessed as effect on forskolin-induced cAMP accumulation at 10 uM by kinetic cAMP assay. Format: functional, cell-based.
The target in data set [4] is T2, Cannabinoid receptor 2 (Homo sapiens, UniProt P34972). The experiment in a line: Allosteric modulator activity at hemagglutinin-tagged human CB2 receptor expressed in Flp-In-293 cells assessed as effect on CP55,940-induced inhibition of forskolin-induced cAMP accumulation by kinetic cAMP assay. Format: functional, cell-based.
The target of data set [5] is T2, Cannabinoid receptor 2. The data set is described as follows: Allosteric agonist activity at hemagglutinin-tagged human CB2 receptor expressed in HEK293 cells assessed as effect on forskolin-induced cAMP accumulation at 10 uM by kinetic cAMP assay. Format: functional, cell-based.
The target in data set [6] is T1, Cannabinoid receptor 1. The experiment in a line: Activity at hemagglutinin-tagged human CB1 receptor expressed in HEK293 cells assessed as effect on forskolin-induced cAMP accumulation in presence of CP55,940 by cAMP BRET assay. Type of data set: functional, cell-based.
The target in data set [7] is T1, Cannabinoid receptor 1. The experiment in a line: Activity at hemagglutinin-tagged human CB1 receptor expressed in HEK293 cells assessed as effect on forskolin-induced cAMP accumulation after 5 mins in presence of CP55,940 by cAMP BRET assay. Type of data set: functional, cell-based.
Data set [8] concerns the target T1, Cannabinoid receptor 1. The experiment in a line: Activity at hemagglutinin-tagged human CB1 receptor expressed in HEK293 cells assessed as effect on forskolin-induced cAMP accumulation after 10 mins in presence of CP55,940 by cAMP BRET assay. Type of data set: functional, cell-based.
The target of data set [9] is T1, Cannabinoid receptor 1. The experiment in a line: Activity at hemagglutinin-tagged human CB1 receptor expressed in HEK293 cells assessed as effect on forskolin-induced cAMP accumulation after 15 mins in presence of CP55,940 by cAMP BRET assay. Type of data set: functional, cell-based.
Data set [10] has as its target T1, Cannabinoid receptor 1. The experiment in a line: Inverse agonist activity at hemagglutinin-tagged human CB1 receptor expressed in HEK293 cells assessed as effect on forskolin-induced cAMP accumulation after 5 to 15 mins in presence of CP55,940 by cAMP BRET assay. Type of data set: functional, cell-based.
The target in data set [11] is T1, Cannabinoid receptor 1. The experiment in a line: Inverse agonist activity at hemagglutinin-tagged human CB1 receptor expressed in HEK293 cells assessed as increase in forskolin-induced cAMP accumulation in absence of CP55,940 at 10 uM and 31.6 uM by cAMP BRET assay. Format: functional, cell-based.
The target of data set [12] is T1, Cannabinoid receptor 1. The data set is described as follows: Activity at human CB1 receptor expressed in AtT20 cells assessed as effect on 1 uM CP55,940-induced peak hyperpolarization up to 10 uM by membrane potential assay. Format: cell-based.
Data set [13] addresses T1, Cannabinoid receptor 1. The experiment in a line: Activity at human CB1 receptor expressed in AtT20 cells assessed as increase in rate of repolarization at 0.1 to 10 uM in presence of 1 uM CP55,940 by membrane potential assay. Type of data set: cell-based.
In data set [14] the target is T1, Cannabinoid receptor 1. The data set is described as follows: Inverse agonist activity at hemagglutinin-tagged human CB1 receptor expressed in HEK293 cells assessed as increase in forskolin-induced cAMP accumulation in absence of CP55,940 at 31.6 uM by cAMP BRET assay. Format: functional, cell-based.
The target of data set [15] is T2, Cannabinoid receptor 2. The data set is described as follows: Activity at hemagglutinin-tagged human CB2 receptor expressed in HEK293 cells assessed as increase in forskolin-induced cAMP accumulation in absence of CP55,940 by cAMP BRET assay. Type of data set: functional, cell-based.
Data set [16] has as its target T2, Cannabinoid receptor 2. The experiment in a line: Activity at hemagglutinin-tagged human CB2 receptor expressed in HEK293 cells assessed as inhibition of forskolin-induced cAMP accumulation in absence of CP55,940 by cAMP BRET assay. Format: functional, cell-based.
In data set [17] the test system is HEK293. The experiment in a line: Reduction in cAMP accumulation in HEK293 cells by kinetic cAMP assay. Format: ADME, cell-based. Conditions: human.
Data set [18] has as its target T2, Cannabinoid receptor 2. The data set is described as follows: Antagonist activity against hemagglutinin-tagged human CB2 receptor expressed in HEK293 cells assessed as suppression of CP55,940-induced inhibition of forskolin-induced cAMP accumulation by cAMP BRET assay. Format: functional, cell-based.

Broadly, the EC50 is the concentration needed to bring the measured effect to its halfway point.

Each structure is given as a SMILES string. Active and inactive are the calls of the source. The calls are words filed in the database; no cut-off is given here.

T1 sequence (P21554 whole entry): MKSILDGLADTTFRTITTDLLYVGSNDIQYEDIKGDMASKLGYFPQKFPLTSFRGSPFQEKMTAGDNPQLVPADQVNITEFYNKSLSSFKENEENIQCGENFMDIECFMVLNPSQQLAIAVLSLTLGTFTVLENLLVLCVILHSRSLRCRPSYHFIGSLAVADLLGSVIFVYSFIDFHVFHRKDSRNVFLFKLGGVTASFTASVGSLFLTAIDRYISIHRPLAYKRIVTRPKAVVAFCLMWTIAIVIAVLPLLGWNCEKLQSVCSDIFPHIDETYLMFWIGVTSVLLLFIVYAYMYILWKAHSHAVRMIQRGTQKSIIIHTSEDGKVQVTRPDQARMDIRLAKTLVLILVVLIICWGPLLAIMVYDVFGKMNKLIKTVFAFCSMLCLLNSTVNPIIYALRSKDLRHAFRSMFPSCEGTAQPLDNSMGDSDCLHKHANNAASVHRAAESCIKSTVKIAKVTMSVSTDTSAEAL
T2 sequence (P34972 whole entry): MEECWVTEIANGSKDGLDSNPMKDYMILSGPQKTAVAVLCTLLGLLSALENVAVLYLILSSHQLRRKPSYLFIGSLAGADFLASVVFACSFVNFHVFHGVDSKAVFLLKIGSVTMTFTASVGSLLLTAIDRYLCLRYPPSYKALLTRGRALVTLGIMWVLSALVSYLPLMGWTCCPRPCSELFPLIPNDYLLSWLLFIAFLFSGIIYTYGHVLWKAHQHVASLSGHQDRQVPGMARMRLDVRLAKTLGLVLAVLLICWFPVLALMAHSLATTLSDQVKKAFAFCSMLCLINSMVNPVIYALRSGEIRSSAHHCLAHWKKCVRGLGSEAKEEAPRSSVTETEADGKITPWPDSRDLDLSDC

Consider `CCc1c(C(=O)NCCc2ccc(N3CCCC3)cc2)[nH]c2ccc(Cl)cc12`, for which the inhibition entry in data set [1] is “Active”. Besides, the result in [2], in data set [3], in data set [4] and in [5] was inactive.

For `CC(O)c1c(C(=O)NCCc2ccc(N3CCCCC3)cc2)[nH]c2ccc(Cl)cc12` (centres undefined), the EC50 in data set [6] was 2660 nM; in data set [7], 13400 nM; in data set [8], 2970 nM; in [9], 1510 nM. The result in data set [10], in [11], in data set [2] and in [3] was Active. Also, the outcome in [4] and in [5] was inactive.

In the case of `CCc1c(C(=O)NCCc2ccc(N(C)C)cc2)[nH]c2ccc(Cl)cc12`, the inhibition entry in [1] is “Active”. For the same molecule, the EC50 in [6] worked out at 600 nM; in [7] it was 3430 nM; in [8] it was 430 nM; in [9] it was 210 nM. For the same molecule, the outcome in data set [10], in data set [11], in data set [2] and in [3] was Active. Moreover, the outcome in data set [4] and in data set [5] was inactive.

Regarding `O=C(NCCc1ccc(Cl)cc1)c1cc2cc(Cl)ccc2[nH]1`, the result in data set [2], in data set [3], in data set [4] and in [5] was inactive.

Regarding `CCc1c(C(=O)NCCc2ccc(C)cc2)[nH]c2ccc(Cl)cc12`, the EC50 in data set [6] was determined as 790 nM; in [7] it was 1010 nM; in data set [8] it was 600 nM; in data set [9], 470 nM. Moreover, the result in [10], in [13] and in data set [2] was Active. For the same molecule, the outcome in data set [12], in data set [3], in data set [4] and in data set [5] was inactive.

`CCc1c(C(=O)NCCc2ccc(Cl)cc2)[nH]c2ccc(Cl)cc12`: the EC50 turned out to be 3420 nM in [6], 8180 nM in [7], 1840 nM in data set [8] and 20000 nM in data set [9]. The outcome in data set [10], in [13] and in data set [2] was Active. In addition, the outcome in [12], in [3], in data set [4] and in data set [5] was inactive.

Consider `CCc1c(C(=O)NCCc2ccc(N3CCCCC3)cc2)[nH]c2ccccc12`, for which the EC50 stood at 4010 nM in data set [6], 6840 nM in data set [7], 2990 nM in [8] and 3550 nM in [9]. Further, the result in [10], in [13], in [14], in [15], in data set [2] and in data set [3] was Active. For the same molecule, the outcome in data set [5] was Active. For the same molecule, the outcome in [12] and in data set [4] was inactive.

`CCc1c(C(=O)OCCc2ccc(NC)cc2)[nH]c2ccc(Cl)cc12`: the EC50 in data set [6] (hek293), in [7], in data set [8] (hek293) and in [9] was below 10000 nM each time. Also, in [2], the outcome was Active. For the same molecule, the outcome in data set [3], in data set [4] and in [5] was inactive.

In the case of `O=C(NCCc1ccc(N2CCCCC2)cc1)c1cc2cc(Cl)ccc2[nH]1`, the outcome in [2], in [3], in data set [4] and in [5] was inactive.

Take `CCc1c(C(=O)NCCc2ccc(F)cc2)[nH]c2ccc(Cl)cc12`: the EC50 in [6] is 4990 nM; in data set [7] it was 7370 nM; in [8] it was 4580 nM; in data set [9] it was 8960 nM. For the same molecule, the result in [10] and in data set [2] was Active. For the same molecule, the outcome in data set [3], in [4] and in data set [5] was inactive.

As for `CCc1c(C(=O)OCCc2ccc(N3CCCCC3)cc2)[nH]c2ccc(Cl)cc12`, the EC50 in [16] was 130 nM. The outcome in [2], in data set [3] and in data set [4] was inactive. In addition, in data set [5], the outcome was Active.

`O=C(NCCc1ccc([N+](=O)[O-])cc1)c1cc2cc(Cl)ccc2[nH]1`: the outcome in data set [2] was Active. The result in data set [3], in data set [4] and in data set [5] was inactive.

In the case of `CCc1c(C(=O)NCCc2ccc(N)cc2)[nH]c2ccc(Cl)cc12`, the outcome in data set [2] was inactive. Moreover, the outcome in [3], in data set [4] and in [5] was Active. Moreover, the Activity result in data set [17] is on record as “Toxic”.

For `CCc1c(C(=O)NCCc2ccc(N3CCCCC3)cc2)[nH]c2ccc(Cl)cc12`, the EC50 in data set [6] is 2240 nM; in data set [7] it was 10600 nM; in data set [8] it was 2090 nM; in data set [9], 640 nM. For the same molecule, the outcome in data set [10], in data set [13], in data set [11], in [2] and in data set [3] was Active. The outcome in data set [12], in [4] and in data set [5] was inactive.

For the molecule `CCc1c(C(=O)NCCc2ccc([N+](=O)[O-])cc2)[nH]c2ccc(Cl)cc12`, the inhibition entry in data set [1] and in data set [18] was “Active” in each case. The EC50 in [6] was determined as 1140 nM; in [7], 3590 nM; in data set [8], 660 nM; in [9], 440 nM. Besides, the result in data set [10], in data set [11], in data set [2], in [3] and in data set [4] was Active. In addition, the result in [5] was inactive.
